What all share (assay): NCI anticancer screen, dose series, 48 h
For assay [1], the system named is CAKI-1.
For assay [2], the system named is OVCAR-8.
For assay [3], the system named is HT-29.
Assay [4] deals with RPMI-8226.
The test system of assay [5] is SF-268.
Assay [6] concerns A498.
In assay [7] the test system is SK-MEL-2.
The subject of assay [8] is SF-295.
For assay [9], the system named is HCC 2998.
The subject of assay [10] is EKVX.
The subject of assay [11] is UACC-62.
Assay [12] concerns SK-MEL-28.
Assay [13] has as its system HOP-62.
Assay [14] concerns 786-0.
Assay [15] deals with RXF 393.
Assay [16] concerns M14.
Assay [17] concerns NCI-H522.
Assay [18] relates to COLO 205.
The test system of assay [19] is HCT-116.
For assay [20], the system named is CCRF-CEM.

These results are taken from ChEMBL document CHEMBL1201862, “PubChem BioAssay data set” (2004).

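Method: 48-hour compound exposure of cells in 96-well plates, five concentrations, linear interpolation of endpoints. GI50 = concentration required for 50% inhibition of growth.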 Calls of active or inactive are those of the source. Cut-off read from the data, not from the text of the source: active = GI50 up to about 1.1 µM and inactive = higher.

As to `CCC1c2[nH]c3ccccc3c2C[C@H]2C(=O)NC(C)C(=O)N12` (stereo not given in full), the GI50 in assay [1], in assay [2], in [3], in assay [4], in assay [5] and in assay [6] was > 100 µM (inactive) each time. Besides, the GI50 in assay [7], in assay [8], in assay [9], in assay [10], in assay [11] and in [12] was > 100 µM (inactive) throughout. The GI50 in assay [13], in assay [14], in assay [15], in assay [16], in [17] and in assay [18] was > 100 µM (inactive) each time. For the same molecule, the GI50 in [19] was > 100 µM (inactive).
As to `Cc1ccc(-c2c(C#N)c(S)n(NS(=O)(=O)c3ccc(C)cc3)c(=O)c2C#N)cc1`, the GI50 is 28 µM (inactive) in assay [1]; 21 µM (inactive) in assay [2]; 24.7 µM (inactive) in assay [4]; 8.02 µM (inactive) in assay [20]; 33.7 µM (inactive) in assay [6]; 23.3 µM (inactive) in assay [7]. Besides, the GI50 in [8] was 23.1 µM (inactive); in assay [9] it was 5.19 µM (inactive); in assay [10], 23.6 µM (inactive); in assay [11], 28.5 µM (inactive); in assay [12], 22 µM (inactive); in assay [14], 29 µM (inactive). Further, the GI50 in assay [15] is 23.5 µM (inactive); in assay [16] it was 31.3 µM (inactive); in [17] it was 19.1 µM (inactive); in [18], 30 µM (inactive); in assay [19], 27 µM (inactive).
On to `N#Cc1c(N)c2c(c(-c3ccccc3)c1-c1ccccc1)C(=O)N(O)C2=O`, for which the GI50 in [1] was > 100 µM (inactive); in assay [2], > 100 µM (inactive); in assay [4], 42.4 µM (inactive); in assay [20], 29.8 µM (inactive); in [5] it was > 100 µM (inactive); in assay [6], 37.8 µM (inactive). Also, the GI50 is 41 µM (inactive) in assay [7]; 38.7 µM (inactive) in [8]; 17.5 µM (inactive) in [9]; 36.6 µM (inactive) in assay [10]; 39.9 µM (inactive) in assay [11]; 40.7 µM (inactive) in [12]. Moreover, the GI50 in assay [14] was 47.1 µM (inactive); in [15], 10.5 µM (inactive); in [16], > 100 µM (inactive); in [17], 56.2 µM (inactive); in assay [18] it was 20.2 µM (inactive); in [19], 19.5 µM (inactive).
As to `Fc1ccc(Oc2nc3ccccc3nc2-c2ccccc2)cc1`, the GI50 in [1] was > 100 µM (inactive); in assay [3] it was > 100 µM (inactive); in [4], 81.7 µM (inactive); in [20], > 100 µM (inactive); in [5] it was > 100 µM (inactive); in [6], > 100 µM (inactive). Further, the GI50 in assay [7], in assay [8], in [9], in assay [10], in assay [11] and in assay [12] was > 100 µM (inactive) each time. For the same molecule, the GI50 in assay [13] was 88.9 µM (inactive); in assay [14] it was 80 µM (inactive); in [15], 37.2 µM (inactive); in assay [17] it was 71.8 µM (inactive); in assay [18] it was > 100 µM (inactive); in [19] it was > 100 µM (inactive).
As to `CC(=O)OCC1OC(n2c3c(cc(C#N)c2=S)CCCCC3)C(OC(C)=O)C(OC(C)=O)C1OC(C)=O` (stereo not given), the GI50 in assay [1], in assay [2], in assay [3], in [4], in assay [20] and in [5] was > 100 µM (inactive) in each case. Moreover, the GI50 in assay [6] is > 100 µM (inactive); in assay [7], > 100 µM (inactive); in [8] it was > 100 µM (inactive); in assay [9], > 100 µM (inactive); in [11], 93.8 µM (inactive); in assay [12], > 100 µM (inactive). The GI50 in [13], in assay [14], in assay [15], in [16], in [17] and in assay [18] was > 100 µM (inactive) throughout. For the same molecule, the GI50 in assay [19] was > 100 µM (inactive).
Regarding `Cc1c(-c2ccccc2)c(C#N)c2nnn(-c3cccc(Cl)c3)c(=O)n12`, the GI50 in [1] is > 100 µM (inactive); in [2] it was 53.5 µM (inactive); in [3], 30.8 µM (inactive); in assay [4] it was 42.5 µM (inactive); in assay [20] it was 28.1 µM (inactive); in assay [5] it was 80.5 µM (inactive). Moreover, the GI50 in assay [6] was 26.2 µM (inactive); in assay [7], 27.7 µM (inactive); in [8], 39.6 µM (inactive); in [9], 78.7 µM (inactive); in [10], 33.1 µM (inactive); in assay [11], > 100 µM (inactive). Further, the GI50 in assay [12] was > 100 µM (inactive); in assay [13], 37.2 µM (inactive); in [14] it was 28.6 µM (inactive); in [15], 31.2 µM (inactive); in assay [17], 47.8 µM (inactive); in assay [18] it was 44.4 µM (inactive). Also, the GI50 in assay [19] is 70 µM (inactive).
`CC1CC(=O)Nc2ccccc2N1C(=O)C1CC1` (stereo not given): the GI50 in [1], in [2], in assay [3], in assay [4], in assay [20] and in assay [5] was > 100 µM (inactive) each time. Further, the GI50 in assay [6], in assay [7], in assay [8], in assay [9], in assay [10] and in assay [12] was > 100 µM (inactive) throughout. In addition, the GI50 in assay [13], in assay [14], in assay [15], in assay [16], in assay [17] and in assay [18] was > 100 µM (inactive) in each case. The GI50 in assay [19] is > 100 µM (inactive).
As for `O=C(O)CCCN1CCCCC1`, the GI50 in [1], in [2], in [3], in assay [4], in assay [20] and in assay [5] was > 100 µM (inactive) each time. Moreover, the GI50 in assay [6], in assay [7], in assay [8], in [9], in [10] and in [11] was > 100 µM (inactive) throughout. Moreover, the GI50 in [12], in assay [13], in assay [14], in assay [15], in assay [16] and in [17] was > 100 µM (inactive) each time. In assay [19], the GI50 was > 100 µM (inactive).
Regarding `Cc1ccc(CC(Cc2ccccc2C)C(=O)O)c(C(=O)O)c1` (stereo not given), the GI50 in assay [1], in assay [2], in assay [3], in assay [4], in assay [20] and in assay [5] was > 100 µM (inactive) each time. Further, the GI50 in assay [6], in assay [7], in [8], in assay [9], in assay [10] and in assay [12] was > 100 µM (inactive) in each case. For the same molecule, the GI50 in [13], in [14], in [15], in assay [16], in assay [17] and in [18] was > 100 µM (inactive) throughout. Further, the GI50 in [19] is > 100 µM (inactive).
In the case of `O=C(NCCCC/N=c1/cccccc1NCCCCNC(=O)OCc1ccccc1)OCc1ccccc1`, the GI50 in assay [1] is 20.9 µM (inactive); in assay [2] it was 18.9 µM (inactive); in assay [3] it was 6.04 µM (inactive); in assay [4], 13 µM (inactive); in [20], 16.6 µM (inactive); in assay [5] it was 25.6 µM (inactive). For the same molecule, the GI50 in [6] was > 10 µM (inactive); in assay [7], 18.8 µM (inactive); in assay [8], 13.5 µM (inactive); in assay [9] it was 15.7 µM (inactive); in [10], 22.9 µM (inactive); in assay [11] it was 19.4 µM (inactive). The GI50 in assay [12] was 22.1 µM (inactive); in assay [13], 21.2 µM (inactive); in assay [14], 16.4 µM (inactive); in assay [15] it was 17.8 µM (inactive); in [16], 14.5 µM (inactive); in assay [17], 17.2 µM (inactive). Also, in assay [19], the GI50 is 9.98 µM (inactive).
On to `C/C1=C\[C@@H](O)C(=O)/C=C/C=C\c2csc(n2)[C@@H](C)NC(=O)C[C@@]2(CC1)[S+]([O-])SC(=O)[C@]2(C)O` (stereo not given in full) [LEINAMYCIN], for which the GI50 in assay [1] was 0.00133 µM (active); in [2], 0.0174 µM (active); in assay [3], 0.04 µM (active); in assay [4], 0.00445 µM (active); in [20], 0.00105 µM (active); in assay [5], 0.0272 µM (active). Further, the GI50 in assay [6] is 0.01 µM (active); in assay [7], 0.00601 µM (active); in assay [8] it was 0.0446 µM (active); in assay [9], 0.184 µM (active); in assay [10], 0.261 µM (active); in assay [11], 0.0124 µM (active). For the same molecule, the GI50 in assay [12] was 0.0214 µM (active); in assay [13] it was 0.13 µM (active); in assay [14], 0.00391 µM (active); in assay [15], 0.0127 µM (active); in [16] it was 0.00692 µM (active); in [17], 0.00188 µM (active). Moreover, the GI50 in [18] is 0.0149 µM (active).
